From patent publication US12227488B2, “Small molecule degraders of Helios and methods of use” (DANA-FARBER CANCER INSTITUTE, INC., priority 2018, dated 2025)

Experiments:
GSPT1 = GSPT1 (Homo sapiens, UniProt P15170+Q96SW2); test: Cellular degradation assay, eGFP-GSPT1 fusion with mCherry reporter in Flp-In 293 cells; type: cell-based; parameters: expressed in transfected cells; host or cells: Flp-In 293; details: for GSPT1 GFP/RFP Relative Abundance: 5 h incubation, n=1; for DC50: half degradation at 5 h (DC50,5 h), triplicate, 11 point dose response
Experimental: IKZF1Δ, IKZF2Δ, GSPT1 and SALL4 ZnF1-2 were subcloned into mammalian pcDNA5/FRT Vector (Ampicillin and Hygromycin B resistant) modified to contain MCS-eGFP-P2A-mCherry. […] Following 2-3 passage cycle, FACS (FACSAria™ II, BD) was used to enrich for cells expressing eGFP and mCherry. Cells stably expressing the IKZF1Δ, IKZF2Δ, GSPT1 or SALL4 Znf1-2 GFP fusions with mCherry reporter were seeded at 30-50% confluency in 384-well plates with 50 μL FluoroBrite™ DMEM media (Thermo Fisher Scientific, A18967) containing 10% FBS per well a day before compound treatment. Compound titrations were dispensed using a D300e Digital Dispenser (HP), normalized to 0.5% DMSO, and incubated with cells for 5 hours.
The resulting images were analyzed using CellProfiler™. A series of image analysis steps (‘image analysis pipeline’) was constructed. First, the red and green channels were aligned and cropped to target the middle of each well (to avoid analysis of heavily clumped cells at the edges), and a background illumination function was calculated for both red and green channels of each well individually and subtracted to correct for illumination variations across the 384-well plate from various sources of error. An additional step was then applied to the green channel to suppress the analysis of large auto fluorescent artifacts and enhance the analysis of cell specific fluorescence by way of selecting for objects under a given size, 30 A.U., and with a given shape, speckles. mCherry-positive cells were then identified in the red channel filtering for objects between 8-60 pixels in diameter and using intensity to distinguish between clumped objects. The green channel was then segmented into GFP positive and negative areas and objects were labeled as GFP positive if at least 40% of it overlapped with a GFP positive area. The fraction of GFP-positive cells/mCherry-positive cells in each well was then calculated, and the green and red images were rescaled for visualization.
The degradation assay was performed as described above. […] Degradation was measured after 5 h of compound treatment and the concentrations that lead to half degradation at 5 h (DC50,5 h) were calculated using the nonlinear fit variable slope model (GraphPad Software).

CRBN and Helios (IKZF2) = biological target: T1, CRBN and Helios (IKZF2) (Homo sapiens, UniProt Q96SW2+Q9UKS7); test: TR-FRET dimerization assay (CRBN-IKZF2 ternary complex formation); type: binding; details: n=1
T1 construct: His (N); Strep (N)
Summary of the method: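 BODIPY-labeled DDB1ΔB-CRBN and in vitro biotinylated IKZF2 were treated with increasing compound concentrations plus tracer Terbium-Streptavidin and incubated 15 min at rt. Recruitment was quantified as the 520/490 nm TR-FRET ratio; values are single measurements (n=1), each averaged from at least three technical replicates.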

IKZF2 = test: Cellular degradation assay, eGFP-IKZF2Δ fusion with mCherry reporter in Flp-In 293 cells; type: cell-based; details: for IKZF2 GFP/RFP Relative Abundance: 5 h incubation, n=1; for DC50: half degradation at 5 h (DC50,5 h), triplicate, 11 point dose response; for potency of IKZF2 degradation, in words: Table 3 summary
Summary of the method: (§1)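 Flp-In 293 cells stably expressing eGFP-tagged degron fusions with P2A-mCherry reporter were treated with compound titrations (0.5% DMSO) for 5 hours. Imaging quantified GFP-positive/mCherry-positive cell fraction per well; DC50 at 5 h from nonlinear variable-slope fit.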

IKZF1 = biological target: T2, IKZF1 (Homo sapiens, UniProt Q13422); test: Cellular degradation assay, eGFP-IKZF1Δ fusion with mCherry reporter in Flp-In 293 cells; type: cell-based; details: for IKZF1 GFP/RFP Relative Abundance: 5 h incubation, n=1; for DC50: half degradation at 5 h (DC50,5 h), triplicate, 11 point dose response
T2 construct: expressed in transfected cells; host or cells: Flp-In 293
Summary of the method: as §1

[1] = compound concentration 2.00E−05
[2] = compound concentration 2.00E−06
[3] = compound concentration 2.00E−07
[4] = compound concentration 6.6667E−05
[5] = compound concentration 6.6667E−06
[6] = compound concentration 6.6667E−07 (667 nM)

T1 sequence (Q96SW2 whole entry): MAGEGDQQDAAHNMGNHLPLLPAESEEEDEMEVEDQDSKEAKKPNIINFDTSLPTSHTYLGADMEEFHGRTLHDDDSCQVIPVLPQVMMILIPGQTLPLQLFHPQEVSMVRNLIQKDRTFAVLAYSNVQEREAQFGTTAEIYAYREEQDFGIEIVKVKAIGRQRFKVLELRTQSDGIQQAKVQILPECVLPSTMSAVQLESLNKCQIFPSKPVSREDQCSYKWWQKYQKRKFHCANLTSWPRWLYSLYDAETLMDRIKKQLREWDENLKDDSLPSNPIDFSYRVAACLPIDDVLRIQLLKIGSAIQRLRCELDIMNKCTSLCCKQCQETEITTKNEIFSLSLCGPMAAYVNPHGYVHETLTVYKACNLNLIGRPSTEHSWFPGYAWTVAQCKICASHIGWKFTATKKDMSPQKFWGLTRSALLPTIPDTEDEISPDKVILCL
T1 sequence (Q9UKS7 whole entry): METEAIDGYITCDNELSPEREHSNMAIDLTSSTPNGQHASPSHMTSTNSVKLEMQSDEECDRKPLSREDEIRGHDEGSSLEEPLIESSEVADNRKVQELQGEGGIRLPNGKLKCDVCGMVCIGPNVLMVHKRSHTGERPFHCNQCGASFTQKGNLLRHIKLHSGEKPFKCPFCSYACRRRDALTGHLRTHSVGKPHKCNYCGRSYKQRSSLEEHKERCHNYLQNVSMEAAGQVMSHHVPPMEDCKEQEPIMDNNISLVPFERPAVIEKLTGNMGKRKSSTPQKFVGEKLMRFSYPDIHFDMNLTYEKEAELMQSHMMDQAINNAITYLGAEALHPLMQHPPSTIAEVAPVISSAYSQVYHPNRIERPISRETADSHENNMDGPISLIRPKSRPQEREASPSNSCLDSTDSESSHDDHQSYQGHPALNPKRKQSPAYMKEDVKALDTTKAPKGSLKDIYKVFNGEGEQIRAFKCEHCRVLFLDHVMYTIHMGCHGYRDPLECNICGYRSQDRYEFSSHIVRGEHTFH
Sequence of GSPT1 (P15170 whole entry, the tested form may be a part): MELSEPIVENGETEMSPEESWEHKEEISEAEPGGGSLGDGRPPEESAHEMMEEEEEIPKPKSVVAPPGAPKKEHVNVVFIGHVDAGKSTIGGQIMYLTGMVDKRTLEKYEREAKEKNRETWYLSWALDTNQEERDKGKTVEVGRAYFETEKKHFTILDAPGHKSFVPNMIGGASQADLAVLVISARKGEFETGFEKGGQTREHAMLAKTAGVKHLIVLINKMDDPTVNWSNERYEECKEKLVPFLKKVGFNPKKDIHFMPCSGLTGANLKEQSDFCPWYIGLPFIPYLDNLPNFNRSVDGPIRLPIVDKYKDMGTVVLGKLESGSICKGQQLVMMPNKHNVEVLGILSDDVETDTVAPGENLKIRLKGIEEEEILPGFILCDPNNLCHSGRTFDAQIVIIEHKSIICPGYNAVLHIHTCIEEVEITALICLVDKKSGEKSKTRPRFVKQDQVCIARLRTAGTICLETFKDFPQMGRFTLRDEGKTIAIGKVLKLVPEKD
Sequence of GSPT1 (Q96SW2 whole entry, the tested form may be a part): as the sequence (Q96SW2 whole entry) above
Sequence of GSPT1 (Q16531 whole entry partner, the tested form may be a part): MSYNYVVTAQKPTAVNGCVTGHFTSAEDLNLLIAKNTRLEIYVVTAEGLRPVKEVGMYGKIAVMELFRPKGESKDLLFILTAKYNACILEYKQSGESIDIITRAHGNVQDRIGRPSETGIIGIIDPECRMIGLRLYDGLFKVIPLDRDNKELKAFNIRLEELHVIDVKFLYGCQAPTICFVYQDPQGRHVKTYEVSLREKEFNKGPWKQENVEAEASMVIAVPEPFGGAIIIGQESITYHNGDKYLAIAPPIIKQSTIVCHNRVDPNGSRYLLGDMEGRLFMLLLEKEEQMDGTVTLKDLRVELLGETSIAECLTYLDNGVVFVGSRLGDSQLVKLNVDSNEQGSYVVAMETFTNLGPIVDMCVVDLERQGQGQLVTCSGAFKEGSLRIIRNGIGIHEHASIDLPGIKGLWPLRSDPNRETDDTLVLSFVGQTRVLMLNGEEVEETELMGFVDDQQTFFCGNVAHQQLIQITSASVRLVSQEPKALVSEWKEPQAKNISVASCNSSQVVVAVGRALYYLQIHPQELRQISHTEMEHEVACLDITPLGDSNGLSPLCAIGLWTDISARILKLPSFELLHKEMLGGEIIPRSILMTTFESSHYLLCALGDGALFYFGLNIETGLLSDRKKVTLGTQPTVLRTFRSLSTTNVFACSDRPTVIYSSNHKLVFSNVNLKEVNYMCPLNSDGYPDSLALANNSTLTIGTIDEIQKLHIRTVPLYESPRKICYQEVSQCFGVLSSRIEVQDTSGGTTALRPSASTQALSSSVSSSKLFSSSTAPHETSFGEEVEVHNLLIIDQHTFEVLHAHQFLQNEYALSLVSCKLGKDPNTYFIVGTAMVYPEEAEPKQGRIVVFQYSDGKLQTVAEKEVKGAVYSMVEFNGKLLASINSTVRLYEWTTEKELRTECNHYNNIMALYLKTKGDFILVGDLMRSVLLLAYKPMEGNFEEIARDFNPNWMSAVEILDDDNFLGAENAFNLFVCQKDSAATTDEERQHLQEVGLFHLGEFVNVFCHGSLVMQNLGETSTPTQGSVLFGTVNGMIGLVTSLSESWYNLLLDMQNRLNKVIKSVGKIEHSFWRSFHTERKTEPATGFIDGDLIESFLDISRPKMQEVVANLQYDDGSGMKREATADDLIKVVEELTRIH
T2 sequence (Q13422 83-213 isoform Q13422-7 limits assumed): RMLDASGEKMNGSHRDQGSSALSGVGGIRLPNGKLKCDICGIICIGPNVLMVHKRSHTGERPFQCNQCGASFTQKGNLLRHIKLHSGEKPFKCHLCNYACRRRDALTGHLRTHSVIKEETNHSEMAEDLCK
T2 sequence (Q96SW2 whole entry partner, the tested form may be a part): as the sequence (Q96SW2 whole entry) above
T2 sequence (Q16531 2-1140 partner limits assumed): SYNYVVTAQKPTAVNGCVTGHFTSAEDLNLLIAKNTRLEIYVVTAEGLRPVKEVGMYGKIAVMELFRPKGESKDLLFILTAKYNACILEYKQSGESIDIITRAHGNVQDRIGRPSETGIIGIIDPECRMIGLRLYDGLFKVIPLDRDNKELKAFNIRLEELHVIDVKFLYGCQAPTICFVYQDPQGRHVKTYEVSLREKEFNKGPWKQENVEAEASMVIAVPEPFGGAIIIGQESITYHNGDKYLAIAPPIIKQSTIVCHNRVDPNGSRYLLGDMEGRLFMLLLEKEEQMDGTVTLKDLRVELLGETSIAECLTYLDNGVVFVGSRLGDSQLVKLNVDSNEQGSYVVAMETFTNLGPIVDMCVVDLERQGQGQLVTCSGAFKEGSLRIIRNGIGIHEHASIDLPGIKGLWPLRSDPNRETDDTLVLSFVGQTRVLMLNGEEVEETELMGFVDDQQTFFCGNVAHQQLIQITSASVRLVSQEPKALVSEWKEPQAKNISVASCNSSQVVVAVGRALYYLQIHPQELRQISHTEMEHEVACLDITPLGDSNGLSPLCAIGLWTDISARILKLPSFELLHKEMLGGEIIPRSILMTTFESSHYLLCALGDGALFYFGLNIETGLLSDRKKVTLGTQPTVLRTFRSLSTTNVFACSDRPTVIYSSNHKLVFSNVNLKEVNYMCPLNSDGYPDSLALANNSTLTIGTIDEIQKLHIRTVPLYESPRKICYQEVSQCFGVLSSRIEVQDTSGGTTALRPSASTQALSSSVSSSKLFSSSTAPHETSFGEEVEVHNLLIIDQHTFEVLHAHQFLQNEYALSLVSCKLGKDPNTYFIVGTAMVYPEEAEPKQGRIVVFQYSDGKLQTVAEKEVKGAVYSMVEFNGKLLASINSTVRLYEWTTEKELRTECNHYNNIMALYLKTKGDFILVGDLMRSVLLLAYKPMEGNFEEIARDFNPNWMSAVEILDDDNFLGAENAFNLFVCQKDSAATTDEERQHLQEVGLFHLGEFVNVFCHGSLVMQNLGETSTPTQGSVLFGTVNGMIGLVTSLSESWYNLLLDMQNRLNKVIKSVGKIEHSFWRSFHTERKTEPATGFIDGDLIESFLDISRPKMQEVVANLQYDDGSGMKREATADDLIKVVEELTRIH

Compound | GSPT1 GFP/RFP Relative Abundance (GSPT1; [1]) | GSPT1 GFP/RFP Relative Abundance (GSPT1; [2]) | GSPT1 GFP/RFP Relative Abundance (GSPT1; [3]) | DC50 (GSPT1) [nM] | TR-FRET-IKZF2 (Normalized to CC-885) (CRBN and Helios (IKZF2); [4]) | TR-FRET-IKZF2 (Normalized to CC-885) (CRBN and Helios (IKZF2); [5]) | TR-FRET-IKZF2 (Normalized to CC-885) (CRBN and Helios (IKZF2); [6]) | IKZF2 GFP/RFP Relative Abundance (IKZF2; [1]) | IKZF2 GFP/RFP Relative Abundance (IKZF2; [2]) | IKZF2 GFP/RFP Relative Abundance (IKZF2; [3]) | DC50 (IKZF2) [nM] | IKZF1 GFP/RFP Relative Abundance (IKZF1; [1]) | IKZF1 GFP/RFP Relative Abundance (IKZF1; [2]) | IKZF1 GFP/RFP Relative Abundance (IKZF1; [3]) | DC50 (IKZF1) [nM] | potency of IKZF2 degradation, in words (IKZF2) | degradation selectivity IKZF2/IKZF1 (IKZF2; from DC50 values of Table 3) [fold]
Cc1ccc(NC(=O)NCCc2cccc(NC3=CC(=O)N(C4CCC(=O)NC4=O)C3=O)c2)cc1Cl (stereo not drawn) [Compound 62, 1-(3-chloro-4-methylphenyl)-3-(3-((1-(2,6-dioxopiperidin-3-yl)-2,5-dioxo-2,5-dihydro-1H-pyrrol-3-yl)amino)phenethyl)urea] | 0.353 | 1.021 | 1.208 | > 1000 | 1.642 | 1.563 | 1.483 | 0.040 | 0.015 | 0.036 | 29 | 0.133 | 0.098 | 0.109 | 26 | – | –
Cc1ccc(NC(=O)Nc2cccc(NC3=CC(=O)N(C4CCC(=O)NC4=O)C3=O)c2)cc1C (stereo not drawn) [Compound 55, 1-(3,4-dimethylphenyl)-3-(3-((1-(2,6-dioxopiperidin-3-yl)-2,5-dioxo-2,5-dihydro-1H-pyrrol-3-yl)amino)phenyl)urea] | 0.096 | 0.153 | 0.180 | – | 0.523 | 0.430 | 0.321 | 1.029 | 0.936 | 0.938 | – | 0.471 | 0.212 | 0.251 | – | – | –
O=C1CCC(N2C(=O)C=C(Nc3cccc(NC(=O)Nc4ccc(Cl)c(Cl)c4)c3)C2=O)C(=O)N1 (stereo not drawn) [Compound 56, 1-(3,4-dichlorophenyl)-3-(3-((1-(2,6-dioxopiperidin-3-yl)-2,5-dioxo-2,5-dihydro-1H-pyrrol-3-yl)amino)phenyl)urea] | 1.572 | 0.074 | 0.112 | – | 0.383 | 0.282 | 0.187 | 1.092 | 1.025 | 0.983 | – | 1.190 | 0.319 | 0.403 | – | – | –
CCC(NC(=O)Nc1ccc(C)c(Cl)c1)c1cccc(NC2=CC(=O)N(C3CCC(=O)NC3=O)C2=O)c1 (stereo not drawn) [Compound 74, 1-(3-chloro-4-methylphenyl)-3-(1-(3-((1-(2,6-dioxopiperidin-3-yl)-2,5-dioxo-2,5-dihydro-1H-pyrrol-3-yl)amino)phenyl)propyl)urea] | – | – | – | > 1000 | 2.010 | 1.914 | 1.817 | 0.021 | 0.033 | 0.032 | 1.9 | 0.096 | 0.090 | 0.114 | 7.8 | most potent against IKZF2 | ~4
Cc1ccc(CC(=O)NCc2cccc(NC3=CC(=O)N(C4CCC(=O)NC4=O)C3=O)c2)cc1C (stereo not drawn) [Compound 60, 2-(3,4-dimethylphenyl)-N-(3-((1-(2,6-dioxopiperidin-3-yl)-2,5-dioxo-2,5-dihydro-1H-pyrrol-3-yl)amino)benzyl)acetamide] | 0.387 | 0.558 | 0.528 | – | 1.082 | 0.945 | 0.833 | 0.087 | 0.151 | 0.185 | – | 0.132 | 0.078 | 0.091 | – | – | –
Cc1ccc(NCc2cccc(NC3=CC(=O)N(C4CCC(=O)NC4=O)C3=O)c2)cc1Cl (stereo not drawn) [Compound 63, 3-(3-((3-(((3-chloro-4-methylphenyl)amino)methyl)-phenyl)amino)-2,5-dioxo-2,5-dihydro-1H-pyrrol-1-yl)piperidine-2,6-dione] | 0.274 | 0.722 | 0.844 | – | 0.703 | 0.649 | 0.625 | 0.428 | 0.339 | 0.470 | – | 0.081 | 0.068 | 0.086 | – | – | –
Cc1ccc(NC(=O)N[C@@H](C)c2cccc(NC3=CC(=O)N(C4CCC(=O)NC4=O)C3=O)c2)cc1Cl (stereo partly drawn) [Compound 71, 1-(3-chloro-4-methylphenyl)-3-((1S)-1-(3-((1-(2,6-dioxopiperidin-3-yl)-2,5-dioxo-2,5-dihydro-1H-pyrrol-3-yl)amino)phenyl)ethyl)urea] | – | – | – | > 1000 | 1.811 | 1.675 | 1.657 | 0.016 | 0.018 | 0.019 | 1.9 | 0.088 | 0.086 | 0.076 | 2.1 | most potent against IKZF2 | –
Cc1ccc(NC(=O)Oc2cccc(NC3=CC(=O)N(C4CCC(=O)NC4=O)C3=O)c2)cc1Cl (stereo not drawn) [Compound 51, 3-((1-(2,6-dioxopiperidin-3-yl)-2,5-dioxo-2,5-dihydro-1H-pyrrol-3-yl)amino)phenyl (3-chloro-4-methylphenyl)carbamate] | 1.680 | 0.829 | 0.775 | – | 0.037 | 0.032 | 0.017 | 1.083 | 1.044 | 1.024 | – | 0.861 | 1.001 | 1.026 | – | – | –
